Assay [1] has as its system HeLa. In words: Antiproliferative activity against human HeLa cells assessed as reduction in cell viability after 24 hrs by MTT assay. The format is functional, cell-based.
Assay [2] concerns HeLa. The assay is described as follows: Induction of cell cycle arrest in human HeLa cells assessed as accumulation at S phase at 2 uM after 24 hrs by propidium iodide staining based flow cytometry (reference value: 0.12 to 0.13%). The format is functional. (In general: In flow cytometry, cells or beads pass a laser one at a time.)
Assay [3] concerns HeLa. The assay is described as follows: Induction of apoptosis in human HeLa cells assessed as necrotic cells at 5 uM after 48 hrs by annexin-V-FITC/propidium iodide staining based flow cytometry (reference value: 0.693%). The format is functional.
Assay [4] deals with HeLa. The assay is described as follows: Induction of apoptosis in human HeLa cells assessed as viable cells at 5 uM after 48 hrs by annexin-V-FITC/propidium iodide staining based flow cytometry (reference value: 88.6%). It counts as functional. As to conditions: Homo sapiens, HeLa, 48 h; read-out: Activity.
Assay [5] concerns HeLa. The assay is described as follows: Induction of apoptosis in human HeLa cells assessed as late apoptotic cells at 5 uM after 48 hrs by annexin-V-FITC/propidium iodide staining based flow cytometry (reference value: 9.3%). It counts as functional.
For assay [6], the system named is HeLa. The assay is described as follows: Induction of cell cycle arrest in human HeLa cells assessed as accumulation at G2/M phase at 2 uM after 24 hrs by propidium iodide staining based flow cytometry (reference value: 0.35 to 0.37%). The format is functional.
Another assay deals with MCF7. In words: Antiproliferative activity against human MCF7 cells assessed as reduction in cell viability after 48 hrs by MTT assay. The format is functional, cell-based. As to conditions: MCF7, 48 h.
Another assay addresses Histone deacetylase 2 (Homo sapiens, UniProt Q92769). The assay is described as follows: Inhibition of HDAC2 (unknown origin) using Boc-Lys(acetyl)-AMC as substrate preincubated for 5 mins followed by substrate addition by fluorescence assay.
The test system of assay [7] is HeLa. In words: Induction of cell cycle arrest in human HeLa cells assessed as accumulation at G0/G1 phase at 0.5 uM after 24 hrs by propidium iodide staining based flow cytometry (reference value: 0.5 to 0.52%). It counts as functional.
The subject of assay [8] is HeLa. The assay is described as follows: Induction of cell cycle arrest in human HeLa cells assessed as accumulation at G0/G1 phase at 1 uM after 24 hrs by propidium iodide staining based flow cytometry (reference value: 0.5 to 0.52%). It counts as functional.
A short description of assay [9]: Antiproliferative activity against human HCT116 cells assessed as reduction in cell viability after 48 hrs by MTT assay. The format is functional, cell-based. As to conditions: HCT-116, 48 h. A general note: Tetrazolium dyes change colour on reduction, which living cells bring about.
The target in the next assay is Histone deacetylase 1 (Homo sapiens, UniProt Q13547). The assay is described as follows: Inhibition of HDAC1 (unknown origin) using Boc-Lys(acetyl)-AMC as substrate preincubated for 5 mins followed by substrate addition by fluorescence assay.
In assay [10] the test system is HeLa. In words: Induction of apoptosis in human HeLa cells assessed as viable cells at 2.5 uM after 48 hrs by annexin-V-FITC/propidium iodide staining based flow cytometry (reference value: 88.6%). It counts as functional. As to conditions: Homo sapiens, HeLa, 48 h; read-out: Activity.
For assay [11], the system named is HeLa. In words: Induction of apoptosis in human HeLa cells assessed as early apoptotic cells at 1.25 uM after 48 hrs by annexin-V-FITC/propidium iodide staining based flow cytometry (reference value: 1.4%). It counts as functional.
The subject of assay [12] is HeLa. The assay is described as follows: Induction of apoptosis in human HeLa cells assessed as necrotic cells at 1.25 uM after 48 hrs by annexin-V-FITC/propidium iodide staining based flow cytometry (reference value: 0.693%). It counts as functional.
Assay [13] deals with HeLa. In words: Induction of cell cycle arrest in human HeLa cells assessed as accumulation at S phase at 0.5 uM after 24 hrs by propidium iodide staining based flow cytometry (reference value: 0.12 to 0.13%). It counts as functional.
The test system of assay [14] is HeLa. In words: Induction of apoptosis in human HeLa cells assessed as late apoptotic cells at 1.25 uM after 48 hrs by annexin-V-FITC/propidium iodide staining based flow cytometry (reference value: 9.3%). The format is functional.
Assay [15] deals with HeLa. The assay is described as follows: Induction of apoptosis in human HeLa cells assessed as early apoptotic cells at 2.5 uM after 48 hrs by annexin-V-FITC/propidium iodide staining based flow cytometry (reference value: 1.4%). The format is functional.
For assay [16], the system named is HeLa. The assay is described as follows: Induction of apoptosis in human HeLa cells assessed as early apoptotic cells at 5 uM after 48 hrs by annexin-V-FITC/propidium iodide staining based flow cytometry (reference value: 1.4%). It counts as functional.
Assay [17] relates to HeLa. In words: Induction of cell cycle arrest in human HeLa cells assessed as accumulation at G0/G1 phase at 2 uM after 24 hrs by propidium iodide staining based flow cytometry (reference value: 0.5 to 0.52%). The format is functional.
The next assay has as its target Histone deacetylase 3 (Homo sapiens, UniProt O15379). The assay is described as follows: Inhibition of HDAC3 (unknown origin) using Boc-Lys(acetyl)-AMC as substrate preincubated for 5 mins followed by substrate addition by fluorescence assay.

Some results are limits rather than exact numbers.

Chain of Histone deacetylase 1 (Q13547 whole entry): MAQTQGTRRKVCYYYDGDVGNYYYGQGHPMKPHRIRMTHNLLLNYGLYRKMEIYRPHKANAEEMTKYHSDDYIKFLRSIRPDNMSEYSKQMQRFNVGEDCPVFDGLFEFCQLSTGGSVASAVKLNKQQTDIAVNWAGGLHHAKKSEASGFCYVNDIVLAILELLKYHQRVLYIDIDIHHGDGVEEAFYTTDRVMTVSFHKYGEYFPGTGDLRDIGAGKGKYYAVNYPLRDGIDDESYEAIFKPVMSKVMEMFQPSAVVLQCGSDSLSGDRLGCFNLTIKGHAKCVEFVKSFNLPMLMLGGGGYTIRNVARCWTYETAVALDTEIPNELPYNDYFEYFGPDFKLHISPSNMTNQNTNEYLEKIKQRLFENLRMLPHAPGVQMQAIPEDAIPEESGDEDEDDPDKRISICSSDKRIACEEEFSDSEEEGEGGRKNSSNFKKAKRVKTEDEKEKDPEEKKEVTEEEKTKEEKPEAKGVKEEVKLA
Chain of Histone deacetylase 2 (Q92769 whole entry): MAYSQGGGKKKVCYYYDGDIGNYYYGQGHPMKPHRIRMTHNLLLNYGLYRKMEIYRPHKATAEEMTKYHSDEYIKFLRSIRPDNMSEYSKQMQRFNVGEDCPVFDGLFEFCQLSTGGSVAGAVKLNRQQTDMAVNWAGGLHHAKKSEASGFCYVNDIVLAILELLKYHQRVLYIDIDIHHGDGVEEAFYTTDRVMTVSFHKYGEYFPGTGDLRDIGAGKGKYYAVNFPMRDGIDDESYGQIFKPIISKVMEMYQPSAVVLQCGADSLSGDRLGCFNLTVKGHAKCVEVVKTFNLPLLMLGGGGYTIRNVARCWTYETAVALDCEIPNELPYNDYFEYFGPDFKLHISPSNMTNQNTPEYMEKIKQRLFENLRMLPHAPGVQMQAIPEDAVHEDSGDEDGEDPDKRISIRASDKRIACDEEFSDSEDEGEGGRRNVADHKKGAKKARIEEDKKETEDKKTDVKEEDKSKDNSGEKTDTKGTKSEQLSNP
Chain of Histone deacetylase 3 (O15379 whole entry): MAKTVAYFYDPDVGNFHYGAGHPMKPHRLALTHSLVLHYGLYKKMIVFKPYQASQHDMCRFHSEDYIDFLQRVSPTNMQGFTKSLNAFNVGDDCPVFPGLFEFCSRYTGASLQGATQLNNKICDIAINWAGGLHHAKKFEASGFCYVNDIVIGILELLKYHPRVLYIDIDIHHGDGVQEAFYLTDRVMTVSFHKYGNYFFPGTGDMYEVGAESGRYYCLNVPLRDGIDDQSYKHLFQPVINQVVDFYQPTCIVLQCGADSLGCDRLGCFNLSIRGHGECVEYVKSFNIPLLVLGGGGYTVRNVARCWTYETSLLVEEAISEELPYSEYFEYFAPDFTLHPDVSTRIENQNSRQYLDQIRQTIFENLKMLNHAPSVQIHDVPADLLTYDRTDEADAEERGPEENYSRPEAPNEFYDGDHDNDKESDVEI

Consider `O=C(/C=C/c1ccc(CNc2nccc(-c3cccnc3)n2)cc1)NO`, for which the IC50 in the assay on HeLa [1] is 53400 nM; in the assay on MCF7, 23000 nM; against Histone deacetylase 2, 187 nM; in [9], under 810 nM; against Histone deacetylase 1 it was 82 nM; against Histone deacetylase 3 it was 113 nM. Moreover, the Activity with HeLa [2] is 0.03%; with HeLa [3] it was 0.858%; with HeLa [5], 12.4%; in the assay with HeLa [6] it was 0.09%; in the assay with HeLa [7] it was 0.58%; in the assay on HeLa [8] it was 0.64%. Moreover, the Activity in the assay with HeLa [11] came out at 4.27%; in the assay on HeLa [12], 0.924%; with HeLa [13] it was 0.13%; in the assay on HeLa [14], 12.2%; with HeLa [15], 6.59%; with HeLa [16], 10.2%. For the same compound, in the assay on HeLa [17], the Activity turned out to be 0.87%. In addition, the viability at 5 µM in the assay on HeLa [4] amounted to 76.5%. In the assay with HeLa [10], the viability at 2.5 µM was found to be 79.6%.
In the case of `O=C(NO)c1ccc(CNc2nccc(-c3cccnc3)n2)cc1`, the IC50 in the assay with HeLa [1] is 30700 nM; in the assay on MCF7 it was 16000 nM; against Histone deacetylase 2, 134 nM; in [9], under 880 nM; against Histone deacetylase 1, 65 nM; against Histone deacetylase 3, 102 nM. Also, the Activity in the assay on HeLa [2] came to 0.03%; with HeLa [3], 0.536%; in the assay on HeLa [5], 11.7%; with HeLa [6], 0.04%; in the assay on HeLa [7] it was 0.56%; in the assay with HeLa [8], 0.66%. The Activity with HeLa [11] is reported as 4.89%; with HeLa [12], 0.94%; in the assay on HeLa [13], 0.13%; with HeLa [14], 14.9%; in the assay on HeLa [15], 6.33%; in the assay on HeLa [16], 11.1%. Besides, in the assay with HeLa [17], the Activity is reported as 0.93%. Moreover, the viability at 5 µM in the assay on HeLa [4] is 76.7%. Moreover, the viability at 2.5 µM in the assay on HeLa [10] was 81.1%.

As usually defined, the IC50 is the concentration at which inhibition is half-maximal.

The record behind these values is ChEMBL document CHEMBL3751819, “Navigating into the chemical space between MGCD0103 and SAHA: novel histone deacetylase inhibitors as a promising lead” (Medchemcomm, 2015).
